Reference: patent publication US11840531B2, “CDK8/19 inhibitors” (JOINT STOCK COMPANY “BIOCAD”, priority 2018, dated 2023)
pIC50: −log10 of the molar value.

Key:
KG-1 cells = assay: Antiproliferative activity, KG-1 cells (AlamarBlue); assay type: cell-based; details: Homo sapiens, KG-1, 120 h, 120 h incubation
Protocol: (§1) Antiproliferative activity of CDK8 inhibitors according to the present invention was measured in a cell-based test on continuous cell cultures MV4-11 (biphenotypic myelomonocytic leukemia, ATCC® CRL-9591™), KG-1 (acute myeloid leukemia, ATCC® CCL-246™) using a vital stain AlamarBlue (ThermoFisher, #DAL1100). The cells were grown in RPMI-1640 (PanEco, #C330p) medium with addition of 10% FBS (Gibco, #16140-071); washed and resuspended in culture medium with 10% FBS (Gibco, #16140-071) in 96-well culture plates (Corning, #3599) with ≈10×10^3 cells in […] of medium per well. The compounds in question were dissolved in DMSO and diluted with a medium with 10% FBS (Gibco, #16140-071) to a final concentration ranging from 0 to 100 μM. […] of diluted compounds were then added to each well (final DMSO concentration was less than 1%) and incubated under 5% CO2 atmosphere at 37° C. for 120 h. After incubating, 15 μL/well of AlamarBlue (ThermoFisher, #DAL1100) reagent was added, contents of plates were mixed in an orbital shaker (Biosan, Latvia) and further incubated for 3-5 h at 37° C. under 5% CO2 atmosphere. Number of living cells was estimated using a microplate spectrophotometer (Tecan Infinite M200Pro, Switzerland) measuring fluorescent signal at the excitation wavelength (λEx) of 540 nm and emission wavelength (λEm) of 590 nm.
(§2) IC50 values were calculated using Magellan 7.2 software (Tecan, Switzerland) approximating experimental points by four-parameter logistic model with the optimization by Levenberg-Marquardt (Table 6).

[1] = General cytotoxicity on HepG2 cells; assay type: cell-based; details: human, 72 h incubation
Protocol: The CC50 values were determined in the test for General cytotoxicity On HepG2 cells (hepatocellular carcinoma, ATCC® HB-8065™). Cells per well were seeded in 96-well plates (Corning, #3599) at a concentration ≈20×10^3 cells in 100 μL of medium and incubated for 72 h with added compounds within the range of concentrations of 200 to 0.78 μM. Cell viability was assessed using the above method.

[2] = Enzyme stability in human liver microsomes (Phase I); assay type: in vitro ADME; details: pH 7.4; 0.5 mg/mL pooled human liver microsomes, 10 μM compound, 37° C.
Protocol: Measuring of enzyme stability of the present compounds enabled estimation of their stability towards the action of Phase I biotransformation enzymes.
The rate of enzymatic decomposition of a compound was detected by incubating the reaction mixture in a dry block heater at 37° C.; the reaction mixture contained 0.5 mg/mL of pooled human liver microsomes (XenoTech, USA, cat #H6010), 10 μM of a compound, 2 mM β-nicotinamide adenine dinucleotide (Carbosynth, UK, cat #NN10871) and 4 mM of magnesium chloride in 0.1M sodium phosphate buffer (pH=7.4). The reaction was quenched with acetonitrile (100 μL of acetonitrile/100 μL of the reaction mixture). After quenching, the samples were centrifuged at 10000 rpm for 10 minutes. Supernatant fluid was tested by chromatographic technique using Agilent1200 (Agilent, USA). Chromatographic analysis was performed in a gradient elution regime with a flow rate of 1 mL/min. A graph of the logarithm of substance's peak area as a function of time was made. The dependent factor of the line corresponded to the elimination rate constant K based on which the drug's half-lif½e T and degradation rate CLint were calculated:
Based on the data obtained, candidates' enzyme stability in human liver microsomes was determined.

MV4-11 cells = assay: Antiproliferative activity, MV4-11 cells (AlamarBlue); assay type: cell-based; details: Homo sapiens, 120 h incubation, read-out: MV-4-11 IC50
Protocol: as §1, §2

[3] = Stability of the compounds in human blood plasma; assay type: in vitro ADME; details: pooled human blood plasma, 10 μM, 4 hours at 37° C.
Protocol: To assess the blood plasma stability of the compounds, we used pooled human blood plasma taken from ten healthy donors. The initial candidate solution (10 mM in DMSO) was diluted with pooled blood plasma to a concentration of 10 μm (test solution). The test solution was incubated in a dry block thermostat for 4 hours at 37° C. HPLC with Agilent 1200 liquid chromatography system (Agilent, USA) was employed to determine peak areas of the compounds in test samples, said peak areas corresponding to the initial test time (prior to incubation) and the final test time (after incubation in a dry block thermostat for 4 hours at 37° C.), proteins were preliminarily precipitated with acetonitrile. Chromatographic analysis was performed in a gradient elution regime with a flow rate of 1 mL/min Substance amount in % in a sample after thermostatting was determined.
The stability of the compounds was estimated. The compounds described herein show at least 90% chemical stability, i.e. they are chemically stable in human blood plasma (Table 2).

CDK8/Cyclin C = CDK8/Cyclin C (Homo sapiens (Human), UniProt P49336); assay: LanthaScreen binding to recombinant CDK8/Cyclin C; details: TR-FRET, Tracer 236 10 nM, CDK8/Cyclin C 5 nM
CDK8/Cyclin C, sequence (P49336 whole entry): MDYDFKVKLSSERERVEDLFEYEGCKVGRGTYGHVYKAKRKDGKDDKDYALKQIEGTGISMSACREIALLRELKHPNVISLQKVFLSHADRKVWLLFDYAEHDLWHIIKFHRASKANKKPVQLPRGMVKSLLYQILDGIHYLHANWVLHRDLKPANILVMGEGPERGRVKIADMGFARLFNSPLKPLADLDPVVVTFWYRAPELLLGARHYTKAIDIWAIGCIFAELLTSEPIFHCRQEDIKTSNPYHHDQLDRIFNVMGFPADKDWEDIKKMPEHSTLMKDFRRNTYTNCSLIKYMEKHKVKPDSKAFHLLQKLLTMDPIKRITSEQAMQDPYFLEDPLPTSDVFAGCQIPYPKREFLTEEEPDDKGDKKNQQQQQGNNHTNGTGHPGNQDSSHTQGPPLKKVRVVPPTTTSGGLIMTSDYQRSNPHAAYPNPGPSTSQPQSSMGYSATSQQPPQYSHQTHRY
CDK8/Cyclin C, sequence (P24863 whole entry partner): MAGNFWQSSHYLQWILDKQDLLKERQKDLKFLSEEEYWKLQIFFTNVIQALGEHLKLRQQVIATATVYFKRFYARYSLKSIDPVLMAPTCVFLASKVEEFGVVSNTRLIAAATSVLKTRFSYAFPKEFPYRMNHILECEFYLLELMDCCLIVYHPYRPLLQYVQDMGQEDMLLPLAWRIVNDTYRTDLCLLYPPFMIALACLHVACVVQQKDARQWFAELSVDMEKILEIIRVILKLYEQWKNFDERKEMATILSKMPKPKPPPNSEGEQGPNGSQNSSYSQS
Protocol: Capability of compounds of the present invention to bind to CDK8 protein was detected using LanthaScreen (ThermoFisher) assay. We detected FRET signal proportional to the amount of CDK8-bound fluorescently-labeled ligand (Tracer 236) that competes with inhibitor for ATP binding site. We carried out the measurements in a 15 μl reaction volume using a 384-well plate (Corning, #CLS4513). Enzyme CDK8/Cyclin C (ThermoFisher, #PR7261B) was mixed with antibodies Anti-His-tag-Biotin (ThermoFisher, #PV6090), Streptavidin-Eu (ThermoFisher, #PV6025), the resulting mixture was added to plate wells (5 MKπ/well). Final concentrations of substances were as follows: CDK8/Cyclin C—5 nM, Streptavidin-Eu—3 nM, Anti-His-tag-Biotin—3 nM. Staurosporine (S4400, Sigma) was used as a reference inhibitor, and 0.1% solution of dimethyl sulphoxide (DMSO) in reaction buffer was used as a blank, the reaction buffer comprised 250 mM HEPES (pH 7.5), 50 mM MgCl2, 5 mM EGTA, and 0.05% Brij-35.
The inhibitors and controls in question were added to corresponding wells (5 μl/well). The plate was incubated at room temperature for 20 minutes. After incubating, 5 μl/well of tracer solution Alexa Fluor-647 (Kinase Tracer 236, ThermoFisher, #PV5592)) was added to the wells. Final concentration of tracer was 10 nM. Reaction buffer, instead of tracer solution, was used as a negative control. The plate was incubated for 40 minutes at 25° C., TR-FRET signal was then measured according to the manufacturer's guidelines on SPARK20 plate reader (Tecan, Switzerland), and the value was converted to the amount of kinase-bound tracer. IC50 values were calculated using SparkControl Magellan 1.2 software (Tecan, Switzerland) approximating experimental points by four-parameter logistic model with the optimization by Levenberg-Marquardt (Table 5).

[4] = Enzyme stability in human liver S9 fractions (Phase II); assay type: in vitro ADME; details: pH 7.4; 0.5 mg/mL pooled human liver S9 fractions, 10 μM compound, 37° C.; read-out: Enzyme stability Liver S9 fraction CLint
Protocol: Measuring of enzyme stability of the present compounds enabled estimation of their stability towards the action of Phase II biotransformation enzymes.
Enzyme degradation rate was measured by incubating the reaction mixture in a dry block thermostat at 37° C., said reaction mixture comprising 0.5 mg/mL of pooled human liver S9 fractions (XenoTech, USA, cat #H0610), 10 μM compound, 2 mM β-nicotinamide adenine dinucleotide (Carbosynth, UK, cat #NN10871) and 4 mM magnesium chloride in 0, 1 M sodium-phosphate buffer, pH=7, 4. The reaction was quenched with acetonitrile (100 μL of acetonitrile/100 μL of the reaction mixture). After quenching, the samples were centrifuged at 10000 rpm for 10 minutes. Supernatant fluid was tested by chromatographic technique using Agilent1200 (Agilent, USA). Chromatographic analysis was performed in a gradient elution regime with a flow rate of 1 mL/min A graph of the logarithm of substance's peak area as a function of time was made. The dependent factor of the line corresponded to the elimination rate constant K based on which the drug's half-life T½ and degradation rate CLint were calculated:
Based on the data obtained, candidates' enzyme stability in human liver S9 fractions was determined.

Row | microsomal CLint at 10 μM [2] [µL/min/mg] | pIC50 (MV4-11 cells) | Chemical stability in human blood plasma 4 h, % [3] [%] | pIC50 (CDK8/Cyclin C) | microsomal CLint at 10 μM [4] [µL/min/mg] | Structure (SMILES) | pIC50 (KG-1 cells) | CC50 at 72 h [1] [nM]
1 | 2.6 | 9.15 | 96.5 | 8.95 | 0.5 | CN(C)C(=O)Cn1cc(-c2ccc(-c3cnc(N)c4ncc(C(=O)NC5CC5)cc34)cc2)cn1 [Compound 3.46, 8-amino-N-cyclopropyl-5-(4-(1-(2-(dimethylamino)-2-oxoethyl)-1H-pyrazole-4-yl)phenyl)-1,7-naphthyridine-3-carboxamide] | 8.96 | > 100000
2 | 5.6 | 8.96 | 96.5 | 8.96 | 1.5 | CN1CCN(C(=O)Cn2cc(-c3ccc(-c4cnc(N)c5ncc(C(=O)NC6CC6)cc45)cc3)cn2)CC1 [Compound 3.47, 8-amino-N-cyclopropyl-5-(4-(1-(2-(4-methylpiperazin-1-yl)-2-oxoethyl)-1H-pyrazole-4-yl)phenyl)-1,7-naphthyridine-3-carboxamide] | 8.48 | > 100000
3 | 7 | 8.55 | 100.0 | 8.73 | 1.4 | CN1CCN(C(=O)c2cnc3c(N)ncc(-c4ccc(-c5cnn(CC(=O)N(C)C)c5)cc4)c3c2)CC1 [Compound 3.49, 2-(4-(4-(8-amino-3-(4-methylpiperazine-1-carbonyl)-1,7-naphthyridine-5-yl)phenyl) -1H-pyrazole-1-yl)-N,N-dimethylacetamide] | 7.89 | > 100000
4 | 7.8 | 8.89 | 100.0 | 9.00 | 7.1 | CN1CCN(C(=O)Cn2cc(-c3ccc(-c4cnc(N)c5ncc(C(=O)N6CCC6)cc45)cc3)cn2)CC1 [Compound 3.53, 2-(4-(4-(8-amino-3-(azetidine-1-carbonyl)-1,7-naphthyridine-5-yl)phenyl)-1H-pyrazole-1-yl)-1-(4-methylpiperazine-1-yl)ethan-1-one] | 8.62 | ~90000
